Read-outs that look alike come from different tables or passages of the source. Values belong to the compound of their own block, whether it stands above or below them.
Key:
[1] = system: MC3T3 mouse osteoblast cells; test: Cell viability MTT assay, MC3T3; assay type: cell-based; settings: for GI50: 72 h, MTT assay; for IC50: Table 3, non tumoral cell model, read-out: IC50 MC3-T3 (osteoblasts); for Selectivity index MC3T3: SI = GI50 (MC3T3)/GI50 (PC-3); for Specificity Bone: MC3-T3 (normal immortalized)/U2OS (tumoral): ratio of IC50, tumoral versus non tumoral cells of same tissue
Experimental: (§1) PC-3 human prostate cancer cells, and LAMA chronic myeloid leukemia were cultured in RPMI 1640 containing 10% fetal bovine serum and 1% antibiotics (100 U/mL penicillin and 100 μg/mL streotimycin) at 37° C. in 5% CO2 humidified incubators. HL60 chronic myeloid leukemia were cultured in RPMI 1640 containing 15% fetal bovine serum and 1% antibiotics (100 U/mL penicillin and 100 μg/mL streotimycin) at 37° C. in 5% CO2 humidified incubators. HepG-2 human liver cancer cells were cultured in EMEM containing 10% of FBS, 1% of nonessential amino acids, 1 mM of Na-pyruvate, 1% of PenStrep antibiotics and 600 μg/mL of Geneticin. A549 human lung carcinoma cells, T24 human bladder carcinoma cells, MCF-7 human breast adenocarcinoma cells, U-2OS human osteosarcoma and NIH3T3 murine fibroblast cells were cultured in DMEM medium containing 10% fetal bovine serum and 1% antibiotics at 37° C. in 5% CO2 humidified incubators. MC3T3 mouse osteoblast cells were cultured in MEM medium containing 10% fetal bovine serum and 1% antibiotics at 37° C. in 5% CO2 humidified incubators. RWPE-1 human prostate normal cells were cultured in K-SFM medium containing 0.05 mg/ml bovine pituitary extract (BPE) and 5 ng/ml epidermal growth factor (EGF) at 37° C. in 5% CO2 humidified incubators. The MTT reagent (3-(4,5-dimethylthiazol-2-yl)-2,5-diphenyltetrazolium bromide) was used to determine cell death as originally described by Mosmaneland modified by Cuvillier et al.^[6] Briefly, cells were seeded 5,000 to 10,000 cells/well in 24-well plates depending on the cell type and allowed to attach overnight. All of the complexes were dissolved in DMSO. The concentration of the complexes was calculated according to the elemental composition of the complexes determined by the elemental analyses. Media in the presence of the tested complexes were added and serially diluted to various concentrations (from 5 μM to 0.01 μM). Next to these concentrations, for DHA 50, 20 and 10 μM and for the cationic bisNHC gold(I) complex 3 0.001 μM have been used. […] After 72 h of treatment, cells were incubated at 37° C. and 5% CO2 with 25 μL MTT solution (5 mg/mL; Sigma-Aldrich) in 24-well plates for approximately 3 to 4 h. After solubilization with 500 μL of lysis buffer (DMSO), formazan was quantified by spectrophotometry with a microplate reader at 570 nm absorbance. The GI50 values corresponding to the concentration that caused 50% inhibition of cell proliferation were calculated from dose-response curves obtained by nonlinear regression analysis (Prism 8, Graphpad Software). All the results were calculated from data obtained in three independent experiments.

[2] = system: PC-3 human prostate cancer cells; test: Cell viability MTT assay, PC-3; assay type: cell-based; settings: for GI50: 72 h, MTT assay; for IC50: Table 3, tumor cell model
[3] = system: Non tumoral cell models (MC3-T3, NIH3T3, RWPE1); test: MTT assay, mean over non tumoral cell models; assay type: cell-based; settings: mean of MC3-T3, NIH3T3, RWPE1
Experimental: (§2) PC-3 human prostate cancer cells, and LAMA chronic myeloid leukemia were cultured in RPMI 1640 containing 10% fetal bovine serum and 1% antibiotics (100 U/mL penicillin and 100 μg/mL streotimycin) at 37° C. in 5% CO2 humidified incubators. HL60 […] were cultured in RPMI 1640 containing 15% fetal bovine serum and 1% antibiotics (100 U/mL penicillin and 100 μg/mL streotimycin) at 37° C. in 5% CO2 humidified incubators. HepG-2 human liver cancer cells were cultured in EMEM containing 10% of FBS, 1% of nonessential amino acids, 1 mM of Na-pyruvate, 1% of PenStrep antibiotics and 600 μg/mL of Geneticin. A549 human lung carcinoma cells, T24 human bladder carcinoma cells, MCF-7 human breast adenocarcinoma cells, U-2OS human osteosarcoma and NIH3T3 murine fibroblast cells were cultured in DMEM medium containing 10% fetal bovine serum and 1% antibiotics at 37° C. in 5% CO2 humidified incubators. MC3T3 mouse osteoblast cells were cultured in MEM medium containing 10% fetal bovine serum and 1% antibiotics at 37° C. in 5% CO2 humidified incubators. RWPE-1 human prostate normal cells were cultured in K-SFM medium containing 0.05 mg/ml bovine pituitary extract (BPE) and 5 ng/ml epidermal growth factor (EGF) at 37° C. in 5% CO2 humidified incubators. The MTT reagent (3-(4,5-dimethylthiazol-2-yl)-2,5-diphenyltetrazolium bromide) was used to determine cell death as originally described by Mosmaneland modified by Cuvillier et al.^[6] Briefly, cells were seeded 5,000 to 10,000 cells/well in 24-well plates depending on the cell type and allowed to attach overnight. All of the complexes were dissolved in DMSO. The concentration of the complexes was calculated according to the elemental composition of the complexes determined by the elemental analyses. […] After solubilization with 500 μL of lysis buffer (DMSO), formazan was quantified by spectrophotometry with a microplate reader at 570 nm absorbance. […] All the results were calculated from data obtained in three independent experiments.

[4] = system: NF-κB transcription factor induced by TNFalpha; test: NF-kB transcriptional activity, NF-kB Reporter (Luc)-A549 stable cell line; assay type: cell-based, human; settings: NF-kB Reporter A549 cells, 1 ng/ml TNFα, 7 hours, read-out: IC50, inhibition of NF-κB transcription factor induced by TNFalpha
Experimental: The NF-kB Reporter (Luc)—A549 Stable Cell Line was used to quantify the inhibitory effects of the indicated doses of the molecules of the invention on transcriptional activity of NF-kB activated by 1 ng/ml TNFα (7 hours of treatment).
Luminescence was read using a luminometer and readings were normalized to wells that only contain media to obtain the Relative Luminescence Units (RLUs).
9. NF-kB Transcriptional Activity

[5] = system: MCF-7 human breast adenocarcinoma cells; test: Cell viability MTT assay, MCF-7; assay type: cell-based; settings: for GI50: 72 h, MTT assay; for IC50: Table 3, tumor cell model
Experimental: as §1

[6] = system: RWPE-1 human prostate normal cells; test: Cell viability MTT assay, RWPE-1; assay type: cell-based; settings: for GI50: 72 h, MTT assay; for IC50: Table 3, non tumoral cell model, read-out: IC50 RWPE1 (prostatic epithelial cells); for Selectivity index RWPE-1: SI = GI50 (RWPE-1)/GI50 (PC-3); for Specificity Prostate: RWPE1 (normal immortalized)/PC-3 (tumoral): ratio of IC50, tumoral versus non tumoral cells of same tissue
Experimental: as §1, with “HepG-2” for “PC-3 human prostate cancer cells, and LAMA chronic myeloid leukemia were cultured in RPMI 1640 containing 10% fetal bovine serum and 1% antibiotics (100 U/mL penicillin and 100 μg/mL streotimycin) at 37° C. in 5% CO2 humidified incubators. HL60 chronic myeloid leukemia were cultured in RPMI 1640 containing 15% fetal bovine serum and 1% antibiotics (100 U/mL penicillin and 100 μg/mL streotimycin) at 37° C. in 5% CO2 humidified incubators. HepG-2”, “The GI50 values corresponding to the concentration that caused 50% inhibition of cell proliferation were calculated from dose-response curves obtained by nonlinear regression analysis (Prism 8, Graphpad Software).” left out

[7] = system: Tumor cell models; test: MTT assay, panel of tumor cell models; assay type: cell-based, human; settings: mean of PC-3, A549, U2OS, T24, MCF-7, LAMA, HL60
Experimental: as §2

[8] = system: HepG-2 human liver cancer cells; test: Cell viability MTT assay, HepG-2; assay type: cell-based
Experimental: as §2

[9] = system: U-2OS human osteosarcoma; test: Cell viability MTT assay, U-2OS; assay type: cell-based; settings: for GI50: 72 h, MTT assay; for IC50: Table 3, tumor cell model, read-out: IC50 U2OS (bone tumor)
Experimental: as §1

[10] = system: HL60 (acute myeloid leukemia); test: Cell viability MTT assay, HL60; assay type: cell-based; settings: for GI50: 72 h, MTT assay; for IC50: Table 3, tumor cell model
Experimental: as §1

GI50 ([2]; Homo sapiens): 1560 nM | IC50 ([2]; Homo sapiens): 1560 nM | IC50 ([4]; Homo sapiens): 8910 nM | GI50 ([5]; Homo sapiens, MCF7): 9670 nM | IC50 ([5]; Homo sapiens, MCF7): 9670 nM | IC50 ([7]; Homo sapiens): 5740 nM | GI50 ([8]; Homo sapiens, HepG2, 72 h): 12000 nM | GI50 ([9]; Homo sapiens, U2OS): 4100 nM | IC50 ([9]; Homo sapiens, U2OS): 4100 nM | GI50 ([10]; Homo sapiens, HL-60): 25000 nM | IC50 ([10]; Homo sapiens, HL-60): 3250 nM
SMILES: C[C@H]1[C@@H](O)O[C@@H]2O[C@]3(C)CC[C@H]4[C@H](C)CC[C@@H]1[C@@]24OO3 [DHA, dihydroartemisinin]
GI50 ([1]; Mus musculus, Osteoblast): 3550 nM | IC50 ([1]; Mus musculus, Osteoblast): 3550 nM | Selectivity index MC3T3 [1]: 2.3 | Specificity Bone: MC3-T3 (normal immortalized)/U2OS (tumoral) [1]: 0.9 | IC50 [3]: 5700 nM | GI50 ([6]; Homo sapiens, RWPE-1): 9680 nM | IC50 ([6]; Homo sapiens, RWPE-1): 9680 nM | Selectivity index RWPE-1 [6]: 6.2 | Specificity Prostate: RWPE1 (normal immortalized)/PC-3 (tumoral) [6]: 6.2

SMILES: CC(=O)OC[C@H]1O[C@@H]([S-])[C@H](OC(C)=O)[C@@H](OC(C)=O)[C@@H]1OC(C)=O.CCP(CC)CC.[Au+] [Auranofin]
GI50 [1]: 1390 nM | Selectivity index MC3T3 [1]: 1.2 | IC50 [1]: 1390 nM | Specificity Bone: MC3-T3 (normal immortalized)/U2OS (tumoral) [1]: 2.9 | GI50 [2]: 1090 nM | IC50 [2]: 1090 nM | IC50 [3]: 860 nM | IC50 [4]: 2960 nM | GI50 [5]: 1390 nM | IC50 [5]: 1390 nM | GI50 [6]: 84 nM | Selectivity index RWPE-1 [6]: 0.1 | IC50 [6]: 84 nM | Specificity Prostate: RWPE1 (normal immortalized)/PC-3 (tumoral) [6]: 0.1 | IC50 [7]: 1460 nM | GI50 ([8]; 72 h): 3620 nM | GI50 ([9]; read-out: GI50 U2OS): 470 nM | IC50 [9]: 474 nM | GI50 [10]: 950 nM | IC50 [10]: 951 nM

From patent publication US20220235073A1, “ARTEMISININ-DERIVATIVE N-HETEROCYCLIC CARBENE GOLD(I) HYBRID COMPLEXES” (CENTRE NATIONAL DE LA RECHERCHE SCIENTIFIQUE, priority 2019, published 2022)
